Measurements published in patent EP0571511B1, “NOVEL UREAS AND THIOUREAS, PREPARATION THEREOF AND APPLICATION IN THERAPY” (priority 1991, dated 1992).

Biological target: acétylcholinestérase (Homo sapiens, UniProt P22303)
Experiment: biochemical
Settings: Inhibition de l'activité de l'acétylcholinestérase; read-out: IC₅₀
Text: Les composés de l'invention ont été soumis à des essais pharmacologiques qui ont montré leur intérét en tant qu'inhibiteurs de l'acétylcholinestérase.

Sequence of acétylcholinestérase (P22303 32-614, species assumed): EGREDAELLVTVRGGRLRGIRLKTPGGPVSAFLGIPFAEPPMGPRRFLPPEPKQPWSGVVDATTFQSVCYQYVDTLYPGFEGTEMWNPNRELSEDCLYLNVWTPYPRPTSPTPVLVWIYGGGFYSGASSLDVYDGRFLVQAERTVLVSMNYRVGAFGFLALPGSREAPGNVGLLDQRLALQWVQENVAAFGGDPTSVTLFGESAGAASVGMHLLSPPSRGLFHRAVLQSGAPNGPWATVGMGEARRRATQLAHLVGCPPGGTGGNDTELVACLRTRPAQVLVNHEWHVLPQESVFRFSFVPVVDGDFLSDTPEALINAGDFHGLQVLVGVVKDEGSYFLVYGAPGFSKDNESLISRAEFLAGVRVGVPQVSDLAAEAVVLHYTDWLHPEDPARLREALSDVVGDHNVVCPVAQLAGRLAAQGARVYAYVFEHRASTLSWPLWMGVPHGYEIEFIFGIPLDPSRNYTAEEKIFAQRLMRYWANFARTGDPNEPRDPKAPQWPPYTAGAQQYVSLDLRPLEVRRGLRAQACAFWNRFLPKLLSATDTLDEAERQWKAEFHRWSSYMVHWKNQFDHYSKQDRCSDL

With `O=C(NC(=S)NCCC1CCN(Cc2ccccc2)CC1)c1ccc2c(c1)OCO2` [compound 12] as the molecule, how does the IC50 read?
Its IC50 is 18 nM.
